From the supplement of paper PMC10307832

Columns and labels:
Test in all cases: relative viability (nuclei count vs DMSO), 5 days (fraction); higher = more cells survive
IMD-0354 + Luminespib = compound: O=C(Nc1cc(C(F)(F)F)cc(C(F)(F)F)c1)c1cc(Cl)ccc1O [IMD-0354] + CCNC(=O)c1noc(-c2cc(C(C)C)c(O)cc2O)c1-c1ccc(CN2CCOCC2)cc1 [Luminespib] (partner 0.01 µM)
In short: (§1)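 Relative viability equals treated-well nuclei counts divided by vehicle-well nuclei counts. Counts came from 4× images of lung cancer cell lines grown in 1536-well plates for 5 days after pin-tool dosing on the day after seeding. Dosing used one drug alone or a fixed anchor-drug dose plus five library-drug doses (not always all listed) in √10 steps, and values are medians of duplicate plates.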

IMD-0354 + Phenformin = compound: O=C(Nc1cc(C(F)(F)F)cc(C(F)(F)F)c1)c1cc(Cl)ccc1O [IMD-0354] + N=C(N)NC(=N)NCCc1ccccc1 [Phenformin] (partner 250 µM)
In short: as §1

IMD-0354 + Palbociclib = compound: O=C(Nc1cc(C(F)(F)F)cc(C(F)(F)F)c1)c1cc(Cl)ccc1O [IMD-0354] + CC(=O)c1c(C)c2cnc(Nc3ccc(N4CCNCC4)cn3)nc2n(C2CCCC2)c1=O [Palbociclib] (partner 0.5 µM)
In short: as §1

CX-5461 + Lapatinib = compound: Cc1cnc(CNC(=O)c2c(=O)c3ccc(N4CCCN(C)CC4)nc3n3c2sc2ccccc23)cn1 [CX-5461] + CS(=O)(=O)CCNCc1ccc(-c2ccc3ncnc(Nc4ccc(OCc5cccc(F)c5)c(Cl)c4)c3c2)o1 [Lapatinib] (partner 2 µM)
In short: as §1

Cell Line | relative viability (IMD-0354 + Luminespib; first compound 0.04 µM) | relative viability (IMD-0354 + Luminespib; first compound 0.1265 µM) | relative viability (IMD-0354 + Luminespib; first compound 0.4 µM) | relative viability (IMD-0354 + Luminespib; first compound 1.265 µM) | relative viability (IMD-0354 + Luminespib; first compound 4 µM) | relative viability (IMD-0354 + Phenformin; first compound 0.04 µM) | relative viability (IMD-0354 + Phenformin; first compound 0.1265 µM) | relative viability (IMD-0354 + Phenformin; first compound 0.4 µM) | relative viability (IMD-0354 + Phenformin; first compound 1.265 µM) | relative viability (IMD-0354 + Phenformin; first compound 4 µM) | relative viability (IMD-0354 + Palbociclib; first compound 0.04 µM) | relative viability (IMD-0354 + Palbociclib; first compound 0.1265 µM) | relative viability (IMD-0354 + Palbociclib; first compound 0.4 µM) | relative viability (IMD-0354 + Palbociclib; first compound 1.265 µM) | relative viability (IMD-0354 + Palbociclib; first compound 4 µM) | relative viability (CX-5461 + Lapatinib; first compound 0.01 µM) | relative viability (CX-5461 + Lapatinib; first compound 0.03162 µM) | relative viability (CX-5461 + Lapatinib; first compound 0.1 µM) | relative viability (CX-5461 + Lapatinib; first compound 0.3162 µM) | relative viability (CX-5461 + Lapatinib; first compound 1 µM)
NCI-H647 | 0.303 | 0.261 | 0.166 | 0.111 | 0.0881 | 0.784 | 0.376 | 0.283 | 0.129 | 0.0531 | 0.481 | 0.485 | 0.174 | 0.056 | 0.0731 | 1.24 | 1.1 | 1.01 | 0.949 | 0.226
NCI-H2023 | 1.03 | 0.799 | 0.292 | 0.0846 | 0.121 | 0.446 | 0.409 | 0.223 | 0.109 | 0.147 | 0.495 | 0.346 | 0.273 | 0.316 | 0.241 | 0.788 | 0.794 |  | 0.143 | 0.106
NCI-H520 | 0.199 | 0.21 | 0.198 | 0.243 | 0.225 | 0.738 | 0.51 | 0.299 | 0.168 | 0.194 | 0.199 | 0.22 | 0.215 | 0.136 | 0.121 | 0.782 | 0.692 | 0.784 | 0.619 | 0.491
RERF-LC-KJ | 1.42 | 1.26 | 0.4 | 0.227 | 0.303 | 0.478 | 0.423 | 0.337 | 0.289 | 0.207 | 1.29 | 1.1 | 0.776 | 0.642 | 0.19 | 0.785 | 0.701 | 0.877 | 0.637 | 0.765
A-427 | 1.06 | 0.985 | 0.457 | 0.301 | 0.166 | 0.379 | 0.209 | 0.247 | 0.105 | 0.112 | 0.516 | 0.525 | 0.441 | 0.157 | 0.158 | 1.06 | 0.999 | 1.04 |  | 0.908
NCI-H1792 | 0.465 | 0.411 | 0.35 | 0.302 | 0.258 | 0.175 | 0.225 | 0.226 | 0.167 | 0.139 | 0.69 | 0.61 | 0.258 | 0.579 | 0.431 | 0.919 | 1.08 | 0.923 | 0.85 | 0.788
SW 1573 | 0.189 | 0.209 | 0.218 | 0.138 | 0.127 | 0.397 | 0.265 | 0.18 | 0.0898 | 0.103 | 0.533 | 0.315 | 0.237 | 0.147 | 0.121 | 1.2 | 1.26 | 0.989 | 0.691 | 0.546
PC-3 [JPC-3] | 0.688 | 0.53 | 0.569 | 0.351 | 0.259 | 0.508 | 0.449 | 0.459 | 0.264 | 0.291 | 0.633 | 0.578 | 0.496 | 0.363 | 0.282 | 0.453 | 0.443 | 0.464 | 0.421 | 0.473
EMC-BAC-2 | 1.28 | 1.13 | 0.537 | 0.651 | 0.284 | 0.52 | 0.441 | 0.24 | 0.155 | 0.218 | 0.534 | 0.522 | 0.423 | 0.35 | 0.34 | 0.861 | 1.04 | 0.88 | 0.693 | 0.588
NCI-H1395 | 0.73 | 0.586 | 0.675 | 0.362 | 0.314 | 0.489 | 0.452 | 0.382 | 0.313 | 0.267 | 0.679 | 0.682 | 0.656 | 0.397 | 0.418 | 0.955 | 0.899 | 0.716 | 0.571 | 0.563
NCI-H2126 | 0.866 | 0.867 | 0.55 | 0.27 | 0.213 | 0.561 | 0.47 | 0.424 | 0.309 | 0.222 | 0.35 | 0.361 | 0.364 | 0.316 | 0.311 | 0.786 | 0.803 | 0.727 | 0.622 | 0.72
NCI-H3122 | 0.0711 | 0.103 | 0.0803 | 0.0918 | 0.0652 | 0.401 | 0.339 | 0.136 | 0.064 | 0.0975 | 0.18 | 0.185 | 0.213 | 0.163 | 0.135 | 1.01 | 0.992 | 0.897 | 1 | 0.854
NCI-H1975 | 0.24 | 0.197 | 0.183 | 0.153 | 0.162 | 0.402 | 0.362 | 0.201 | 0.139 | 0.124 | 0.752 | 0.569 | 0.306 | 0.165 | 0.178 | 1.14 | 0.921 | 0.855 | 0.927 | 0.386
NCI-H2170 | 0.754 | 0.746 | 0.491 | 0.764 | 0.231 | 0.418 | 0.37 | 0.301 | 0.229 | 0.221 | 0.425 | 0.394 | 0.342 | 0.385 | 0.229 | 0.305 | 0.261 | 0.283 | 0.207 | 0.296
LU99A | 0.214 | 0.264 | 0.221 | 0.196 | 0.201 | 0.529 | 0.826 | 0.417 | 0.218 | 0.265 | 0.295 | 0.418 | 0.325 | 0.279 | 0.179 | 0.859 | 1.02 | 0.86 | 0.56 | 0.213
